Assay results as given in paper PMC3662789, “Structural Investigation of a Novel N-Acetyl Glucosamine Binding Chi-Lectin Which Reveals Evolutionary Relationship with Class III Chitinases” (PLoS ONE, 2013).

Target: T1, TCLL (tamarind chitinase like lectin) (Tamarindus indica, UniProt S4S1V9)
T1 construct: monomer, glycosylated at Asn146; 33440 Da (deglycosylated 31811 Da); 266 residues modelled (7-272)
Experiment: isothermal titration calorimetry (single-site model)
Type: binding
Settings: 20 mM Tris, pH 7.4, 25°C; 0.3 mM protein, 8 mM sugar in syringe; crystal complex at 1.6 Å with two surface sites S1 and S2

T1 sequence (S4S1V9 entry or part of it): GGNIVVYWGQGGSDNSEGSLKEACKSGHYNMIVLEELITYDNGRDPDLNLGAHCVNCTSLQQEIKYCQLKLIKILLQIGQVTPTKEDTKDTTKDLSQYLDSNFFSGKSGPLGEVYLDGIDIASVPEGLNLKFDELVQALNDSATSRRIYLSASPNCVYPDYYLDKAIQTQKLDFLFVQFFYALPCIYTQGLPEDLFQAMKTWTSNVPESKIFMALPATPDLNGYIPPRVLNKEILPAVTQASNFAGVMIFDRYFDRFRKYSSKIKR

Structure (SMILES): CC(=O)N[C@H]1C(O)O[C@H](CO)[C@@H](O)[C@@H]1O (stereo partly shown) [N-acetyl glucosamine]
- Ka: 2.9×10^3
